According to patent US8309546B2, “Morpholinopurine derivatives” (Daiichi Sankyo Company, Limited, priority 2008, dated 2012):

Assays:
PI3Kα = PI3Kα (Homo sapiens, UniProt P42336); assay: PI3K kinase activity inhibition assay; format: biochemical; settings: Kinase-Glo Plus ATP detection, read-out: IC50 against PI3K
Method in brief: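 PI3Kα (50 nM solution) was reacted with 30 μM ATP and 45 μM PIP2 solutions, each in HEPES pH 7.4 with MgCl2 and DTT, for 2 h at room temperature. Remaining ATP was measured by Kinase-Glo Plus luminescence, and inhibition was derived from ATP consumed. IC50 was taken from curve fitting of the serial dilutions.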

[1] = test system: human endometrial cancer cell strain AN3CA; assay: Cell growth inhibition test (MTT), AN3CA; format: cell-based; settings: AN3-CA, 72 h, 3 days culture, read-out: concentration exhibiting anti-cell effect (GI50)
Method in brief: (§1)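 Living cells were counted by MTT reduction (4 h; formazan dissolved in DMSO, A540) after 3-day compound exposure at 37° C, 5% CO2. Seeding was 5000 (AN3CA), 1000 (IGROV1) or 5000 (HT29) cells/well, dosing the following day. Growth rate T/C % used pre-dose baseline; GI50 interpolated at 50%.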

[2] = test system: human ovary cancer cell strain IGROV1; assay: Cell growth inhibition test (MTT), IGROV1; format: cell-based; settings: IGROV-1, 72 h, IGROV1, 3 days culture, read-out: concentration exhibiting anti-cell effect (GI50)
Method in brief: as §1

[3] = test system: human colon cancer cell strain HT29; assay: Cell growth inhibition test (MTT), HT29; format: cell-based; settings: HT-29, 72 h, HT29, 3 days culture, read-out: concentration exhibiting anti-cell effect (GI50)
Method in brief: as §1

[4] = test system: Akt (threonine 308) phosphorylation in AN3CA tumor; assay: Akt phosphorylation inhibition assay in xenograft; format: in vivo, female nude mouse; settings: Mus musculus, AN3-CA, oral, 6 hr after dosing
Method in brief: (§2)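 AN3CA human endometrial cancer cells grown as subcutaneous xenografts in female nude mice; compound dosed orally at a set concentration, tumors excised after a set time. Tumor lysates at equal protein were western blotted for p-Akt(T308) and p-S6(S235/236). Inhibition (%) = 100−100×(treated/untreated phospho signal).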

[5] = test system: S6 (serine 235 and 236) phosphorylation in AN3CA tumor; assay: S6 phosphorylation inhibition assay in xenograft; format: in vivo, female nude mouse; settings: Mus musculus, AN3-CA, oral, 6 hr after dosing
Method in brief: as §2

Chain of PI3Kα (P42336 whole entry, species assumed): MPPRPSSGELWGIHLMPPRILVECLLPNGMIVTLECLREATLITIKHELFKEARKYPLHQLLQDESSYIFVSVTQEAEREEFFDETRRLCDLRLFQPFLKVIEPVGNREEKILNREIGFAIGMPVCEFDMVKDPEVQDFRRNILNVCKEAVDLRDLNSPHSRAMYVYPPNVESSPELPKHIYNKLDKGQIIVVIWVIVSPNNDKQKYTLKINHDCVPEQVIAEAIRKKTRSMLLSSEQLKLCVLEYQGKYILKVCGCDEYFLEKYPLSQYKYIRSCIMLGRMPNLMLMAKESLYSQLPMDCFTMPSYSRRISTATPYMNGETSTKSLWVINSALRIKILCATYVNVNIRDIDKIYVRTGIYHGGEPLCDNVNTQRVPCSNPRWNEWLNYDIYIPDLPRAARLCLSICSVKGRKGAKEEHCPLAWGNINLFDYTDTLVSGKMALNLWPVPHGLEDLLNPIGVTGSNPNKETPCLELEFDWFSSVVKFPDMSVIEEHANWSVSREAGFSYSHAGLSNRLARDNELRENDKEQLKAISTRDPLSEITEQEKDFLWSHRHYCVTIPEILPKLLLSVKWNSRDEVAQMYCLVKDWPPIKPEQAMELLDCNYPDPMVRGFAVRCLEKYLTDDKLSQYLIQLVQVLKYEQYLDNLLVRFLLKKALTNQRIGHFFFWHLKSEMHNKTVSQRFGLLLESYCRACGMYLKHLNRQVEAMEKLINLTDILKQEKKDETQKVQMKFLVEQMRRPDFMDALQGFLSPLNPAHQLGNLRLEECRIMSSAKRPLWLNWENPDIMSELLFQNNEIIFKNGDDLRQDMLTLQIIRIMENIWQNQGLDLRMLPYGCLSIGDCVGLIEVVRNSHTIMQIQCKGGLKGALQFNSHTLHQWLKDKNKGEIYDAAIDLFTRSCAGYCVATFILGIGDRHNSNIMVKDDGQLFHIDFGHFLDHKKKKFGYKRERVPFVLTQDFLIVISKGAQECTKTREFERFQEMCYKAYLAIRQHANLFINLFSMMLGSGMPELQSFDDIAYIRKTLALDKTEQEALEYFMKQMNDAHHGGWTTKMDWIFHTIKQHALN
Chain of PI3Kα (P27986 whole entry partner, species assumed): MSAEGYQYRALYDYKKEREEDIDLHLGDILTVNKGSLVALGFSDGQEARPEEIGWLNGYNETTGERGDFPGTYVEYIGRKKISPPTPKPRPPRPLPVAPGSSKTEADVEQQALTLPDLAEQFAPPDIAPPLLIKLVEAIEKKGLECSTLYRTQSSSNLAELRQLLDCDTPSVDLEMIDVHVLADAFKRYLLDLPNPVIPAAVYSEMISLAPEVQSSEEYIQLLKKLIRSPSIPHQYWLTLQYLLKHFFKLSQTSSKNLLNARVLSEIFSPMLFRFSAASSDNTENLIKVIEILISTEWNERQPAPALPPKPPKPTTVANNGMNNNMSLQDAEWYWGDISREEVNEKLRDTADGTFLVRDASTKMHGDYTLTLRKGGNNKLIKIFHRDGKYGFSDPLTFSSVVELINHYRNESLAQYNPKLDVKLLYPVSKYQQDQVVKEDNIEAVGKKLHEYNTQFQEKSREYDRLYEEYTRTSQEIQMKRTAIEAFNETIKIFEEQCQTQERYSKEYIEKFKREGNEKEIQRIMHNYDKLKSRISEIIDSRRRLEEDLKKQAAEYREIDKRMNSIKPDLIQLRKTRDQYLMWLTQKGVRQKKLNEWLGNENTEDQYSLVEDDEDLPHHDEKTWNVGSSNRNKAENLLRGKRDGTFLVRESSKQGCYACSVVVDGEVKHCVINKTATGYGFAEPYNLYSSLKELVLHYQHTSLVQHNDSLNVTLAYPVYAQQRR

Work on C[C@H](O)C(=O)N1CCN(c2nc3c(N4CCOCC4)nc(-c4cnc(N)nc4)nc3n2CC(F)(F)F)CC1 [Example 68, (2S)-1-{4-[2-(2-Aminopyrimidin-5-yl)-6-morpholin-4-yl-9-(2,2,2-trifluoroethyl)-9H-purin-8-yl]piperazin-1-yl}-1-oxopropan-2-ol] yielded an IC50 (PI3Kα) of 0.01 to 0.02 µM, a GI50 [1] of no more than 5 µM and a GI50 [2] of no more than 5 µM. The GI50 [3] was no more than 5 µM, the inhibition at 10 mg/kg [4] was greater than 60% and the inhibition at 10 mg/kg [5] was greater than 90%.
For C[C@H](O)CC(=O)N1CCN(c2nc3c(N4CCOCC4)nc(-c4cnc(N)nc4)nc3n2CC(F)(F)F)CC1 [Example 69, (2S)-4-{4-[2-(2-Aminopyrimidin-5-yl)-6-morpholin-4-yl-9-(2,2,2-trifluoroethyl)-9H-purin-8-yl]piperazin-1-yl}-4-oxobutan-2-ol], the IC50 (PI3Kα) was less than 0.01 µM, the GI50 [1] was no more than 5 µM and the GI50 [2] was no more than 5 µM. The GI50 [3] was no more than 5 µM, the inhibition at 10 mg/kg [4] was greater than 60% and the inhibition at 10 mg/kg [5] was greater than 90%.
In the case of C[C@@H](O)CC(=O)N1CCN(c2nc3c(N4CCOCC4)nc(-c4cnc(N)nc4)nc3n2CC(F)(F)F)CC1 [Example 70, (2R)-4-{4-[2-(2-Aminopyrimidin-5-yl)-6-morpholin-4-yl-9-(2,2,2-trifluoroethyl)-9H-purin-8-yl]piperazin-1-yl}-4-oxobutan-2-ol], the IC50 (PI3Kα) is reported as 0.01 to 0.02 µM, the GI50 [1] is reported as no more than 5 µM and the GI50 [2] is reported as no more than 5 µM. The GI50 [3] was no more than 5 µM, the inhibition at 10 mg/kg [4] was greater than 60% and the inhibition at 10 mg/kg [5] was greater than 90%.
Molecule Nc1ncc(-c2nc(N3CCOCC3)c3nc(N4CCN(C=O)CC4)n(CC(F)(F)F)c3n2)cn1 [Example 71, 4-[2-(2-Aminopyrimidin-5-yl)-6-morpholin-4-yl-9-(2,2,2-trifluoroethyl)-9H-purin-8-yl]piperazine-1-carboaldehyde] has an IC50 (PI3Kα) of less than 0.01 µM, a GI50 [1] of no more than 5 µM and a GI50 [2] of no more than 5 µM. It also gave a GI50 [3] of no more than 5 µM, an inhibition at 10 mg/kg [4] greater than 60% and an inhibition at 10 mg/kg [5] greater than 90%.
CC[C@H]1CN(c2nc3c(N4CCOCC4)nc(-c4cnc(N)nc4)nc3n2CC(F)(F)F)CCN1C(C)=O [Example 75, 5-{8-[(3S)-4-Acetyl-3-ethylpiperazin-1-yl]-6-morpholin-4-yl-9-(2,2,2-trifluoroethyl)-9H-purin-2-yl}pyrimidin-2-amine] gave an IC50 (PI3Kα) of less than 0.01 µM, a GI50 [1] of no more than 5 µM and a GI50 [2] of no more than 5 µM. For the same molecule, the GI50 [3] was no more than 5 µM, the inhibition at 10 mg/kg [4] was greater than 60% and the inhibition at 10 mg/kg [5] was greater than 90%.
For CC[C@H]1CN(c2nc3c(N4CCOCC4)nc(-c4cnc(N)nc4)nc3n2CC(F)(F)F)CCN1S(C)(=O)=O [Example 76, 5-{8-[(3S)-3-Ethyl-4-(methylsulfonyl)piperazin-1-yl]-6-morpholin-4-yl-9-(2,2,2-trifluoroethyl)-9H-purin-2-yl}pyrimidin-2-amine], the IC50 (PI3Kα) was less than 0.01 µM, the GI50 [1] was no more than 5 µM and the GI50 [2] was no more than 5 µM. It also gave a GI50 [3] of no more than 5 µM, an inhibition at 10 mg/kg [4] greater than 60% and an inhibition at 10 mg/kg [5] greater than 90%.
Molecule CC[C@H]1CN(c2nc3c(N4CCOCC4)nc(-c4cnc(N)nc4)nc3n2CC(F)(F)F)CCN1C(=O)[C@H](C)O [Example 77, (2S)-1-{(2S)-4-[2-(2-Aminopyrimidin-5-yl)-6-morpholin-4-yl-9-(2,2,2-trifluoroethyl)-9H-purin-8-yl]-2-ethylpiperazin-1-yl}-1-oxopropan-2-ol] has an IC50 (PI3Kα) of less than 0.01 µM, a GI50 [1] of no more than 5 µM and a GI50 [2] of no more than 5 µM. The GI50 [3] was no more than 5 µM, the inhibition at 10 mg/kg [4] was greater than 60% and the inhibition at 10 mg/kg [5] was greater than 90%.
In the case of CC[C@@H]1CN(c2nc3c(N4CCOCC4)nc(-c4cnc(N)nc4)nc3n2CC(F)(F)F)CCN1C(=O)[C@H](C)O [Example 79], the IC50 (PI3Kα) is reported as less than 0.01 µM, the GI50 [1] is reported as no more than 5 µM and the GI50 [2] is reported as no more than 5 µM. For the same molecule, the GI50 [3] was no more than 5 µM, the inhibition at 10 mg/kg [4] was greater than 60% and the inhibition at 10 mg/kg [5] was greater than 90%.
CC(C)Cn1c(N2CCN(C(=O)C[C@@H](C)O)CC2)nc2c(N3CCOCC3)nc(-c3cnc(N)nc3)nc21 [Example 81, (2R)-4-{4-[2-(2-Aminopyrimidin-5-yl)-9-isobutyl-6-morpholin-4-yl-9H-purin-8-yl]piperazin-1-yl}-4-oxobutan-2-ol] gave an IC50 (PI3Kα) of less than 0.01 µM, a GI50 [1] of no more than 5 µM and a GI50 [2] of no more than 5 µM. The GI50 [3] was no more than 5 µM, the inhibition at 10 mg/kg [4] was greater than 60% and the inhibition at 10 mg/kg [5] was greater than 90%.
For CC(C)Cn1c(N2CCN(C(=O)C[C@H](C)O)CC2)nc2c(N3CCOCC3)nc(-c3cnc(N)nc3)nc21 [Example 82, (2S)-4-{4-[2-(2-Aminopyrimidin-5-yl)-9-isobutyl-6-morpholin-4-yl-9H-purin-8-yl]piperazin-1-yl}-4-oxobutan-2-ol], the IC50 (PI3Kα) was 0.01 to 0.02 µM, the GI50 [1] was no more than 5 µM and the GI50 [2] was no more than 5 µM. The GI50 [3] was no more than 5 µM, the inhibition at 10 mg/kg [4] was greater than 60% and the inhibition at 10 mg/kg [5] was greater than 90%.
Work on CC(C)Cn1c(N2CCN(C(=O)C[C@@H](C)O)[C@@H](C)C2)nc2c(N3CCOCC3)nc(-c3cnc(N)nc3)nc21 [Example 83, (2R)-4-{(2S)-4-[2-(2-Aminopyrimidin-5-yl)-9-isobutyl-6-morpholin-4-yl-9H-purin-8-yl]-2-methylpiperazin-1-yl}-4-oxobutan-2-ol] yielded an IC50 (PI3Kα) of 0.01 to 0.02 µM, a GI50 [1] of no more than 5 µM and a GI50 [2] of no more than 5 µM. The GI50 [3] was no more than 5 µM, the inhibition at 10 mg/kg [4] was greater than 60% and the inhibition at 10 mg/kg [5] was greater than 90%.
CC(C)Cn1c(N2CCN(C(=O)C[C@@H](C)O)[C@H](C)C2)nc2c(N3CCOCC3)nc(-c3cnc(N)nc3)nc21 [Example 84, (2R)-4-{(2R)-4-[2-(2-Aminopyrimidin-5-yl)-9-isobutyl-6-morpholin-4-yl-9H-purin-8-yl]-2-methylpiperazin-1-yl}-4-oxobutan-2-ol] was tested, and the IC50 (PI3Kα) was less than 0.01 µM, the GI50 [1] was no more than 5 µM and the GI50 [2] was no more than 5 µM. For the same molecule, the GI50 [3] was no more than 5 µM, the inhibition at 10 mg/kg [4] was greater than 60% and the inhibition at 10 mg/kg [5] was greater than 90%.
CC(C)Cn1c(N2CCN(C(=O)C[C@H](C)O)[C@@H](C)C2)nc2c(N3CCOCC3)nc(-c3cnc(N)nc3)nc21 [Example 85, (2S)-4-{(2S)-4-[2-(2-Aminopyrimidin-5-yl)-9-isobutyl-6-morpholin-4-yl-9H-purin-8-yl]-2-methylpiperazin-1-yl}-4-oxobutan-2-ol] gave an IC50 (PI3Kα) of less than 0.01 µM, a GI50 [1] of no more than 5 µM and a GI50 [2] of no more than 5 µM. It also gave a GI50 [3] of no more than 5 µM, an inhibition at 10 mg/kg [4] greater than 60% and an inhibition at 10 mg/kg [5] greater than 90%.
Work on CC(C)Cn1c(N2CCN(C(=O)C[C@H](C)O)[C@H](C)C2)nc2c(N3CCOCC3)nc(-c3cnc(N)nc3)nc21 [Example 86, (2S)-4-{(2R)-4-[2-(2-Aminopyrimidin-5-yl)-9-isobutyl-6-morpholin-4-yl-9H-purin-8-yl]-2-methylpiperazin-1-yl}-4-oxobutan-2-ol] yielded an IC50 (PI3Kα) of less than 0.01 µM, a GI50 [1] of no more than 5 µM and a GI50 [2] of no more than 5 µM. The GI50 [3] was no more than 5 µM, the inhibition at 10 mg/kg [4] was greater than 60% and the inhibition at 10 mg/kg [5] was greater than 90%.
For C[C@H](O)C(=O)N1CCN(c2nc3c(N4CCOCC4)nc(-c4cnc(N)nc4)nc3n2CC2CC2)CC1 [Example 88, (2S)-1-{4-[2-(2-Aminopyrimidin-5-yl)-9-(cyclopropylmethyl)-6-morpholin-4-yl-9H-purin-8-yl]piperazin-1-yl}-1-oxopropan-2-ol], the IC50 (PI3Kα) was less than 0.01 µM, the GI50 [1] was no more than 5 µM and the GI50 [2] was no more than 5 µM. The GI50 [3] was no more than 5 µM, the inhibition at 10 mg/kg [4] was greater than 60% and the inhibition at 10 mg/kg [5] was 70 to 90%.
For CC(C)Cn1c(N2CCN(C(=O)CO)CC2)nc2c(N3CCOCC3)nc(-c3cnc(N)nc3)nc21 [Example 89, 2-{4-[2-(2-Aminopyrimidin-5-yl)-9-isobutyl-6-morpholin-4-yl-9H-purin-8-yl]piperazin-1-yl}-2-oxoethanol], the IC50 (PI3Kα) was less than 0.01 µM, the GI50 [1] was no more than 5 µM and the GI50 [2] was no more than 5 µM. The GI50 [3] was no more than 5 µM, the inhibition at 10 mg/kg [4] was greater than 60% and the inhibition at 10 mg/kg [5] was 70 to 90%.
CC(C)Cn1c(N2CCN(C=O)CC2)nc2c(N3CCOCC3)nc(-c3cnc(N)nc3)nc21 [Example 90, 4-[2-(2-Aminopyrimidin-5-yl)-9-isobutyl-6-morpholin-4-yl-9H-purin-8-yl]piperazine-1-carboaldehyde] gave an IC50 (PI3Kα) of 0.01 to 0.02 µM, a GI50 [1] of no more than 5 µM and a GI50 [2] of no more than 5 µM. For the same molecule, the GI50 [3] was no more than 5 µM, the inhibition at 10 mg/kg [4] was greater than 60% and the inhibition at 10 mg/kg [5] was greater than 90%.
C[C@H](O)C(=O)N1CCN(c2nc3c(N4CCOCC4)nc(-c4cnc(N)nc4)nc3n2CC2CC2)C[C@@H]1C [Example 92, (2S)-1-{(2S)-4-[2-(2-Aminopyrimidin-5-yl)-9-(cyclopropylmethyl)-6-morpholin-4-yl-9H-purin-8-yl]-2-methylpiperazin-1-yl}-1-oxopropan-2-ol] was tested, and the IC50 (PI3Kα) was 0.01 to 0.02 µM, the GI50 [1] was no more than 5 µM and the GI50 [2] was no more than 5 µM. The GI50 [3] was no more than 5 µM, the inhibition at 10 mg/kg [4] was greater than 60% and the inhibition at 10 mg/kg [5] was greater than 90%.
With CC(C)Cn1c(N2CCN(C(=O)[C@@H](C)O)CC2)nc2c(N3CCOCC3)nc(-c3cnc(N)nc3)nc21 [Example 93] the IC50 (PI3Kα) was less than 0.01 µM, the GI50 [1] was no more than 5 µM and the GI50 [2] was no more than 5 µM. For the same molecule, the GI50 [3] was no more than 5 µM, the inhibition at 10 mg/kg [4] was greater than 60% and the inhibition at 10 mg/kg [5] was greater than 90%.
